Measurements as given in PMC7997032, “Organic synthesis and anti-influenza A virus activity of cyclobakuchiols A, B, C, and D” (PLoS ONE, 2021).
“And” between values parts separate entries of the source, which are not always exact repeats. Equal entries are not always repeated.

System: MDCK cells
Assay: MTT assay (cytotoxicity against MDCK cells)
Format: cell-based, canine
Conditions: MDCK cells; for MTT, DMSO as 100 (DMSOを 100として), ave / MTT 72h AVE (DMSO = 100): 72h; for MTT, DMSO as 100 (DMSOを 100として), ave: mean of 5 wells (200409 #1 and #3); for MTT 72h AVE (DMSO = 100): summary AVE; for MTT 24h, AVE (DMSO as 100): 0.78 uM, relative to DMSO = 100; for MTT 24h, AVE (DMSO as 100) / MTT 24h, 570-650nm, DMSO as 100, ave: mean of 5 wells from 3 experiments; for MTT 24h, 570-650nm, DMSO as 100, single replicate: individual wells (200331; 200403 #2 1,2; 200403 #3 1,2); for 570-650nm (MTT absorbance, single wells) / 570-650nm ave (mean MTT absorbance of 5 wells) / MTT absorbance with DMSO as 100 (DMSOを 100として), single wells: MTT 72h; for 570-650nm (MTT absorbance, single wells): experiments #1-#3, duplicate wells; for MTT absorbance with DMSO as 100 (DMSOを 100として), single wells: relative to mean of DMSO
Method: 1–5 (0.8–100 μM) were prepared in DMSO (100 μM, 1%; 50 μM, 0.5%; 25 μM, 0.25%; 12.5 μM, 0.125%; 6.3 μM, 0.063%; 3.1 μM, 0.031%; 1.6 μM, 0.016%; 0.8 μM, 0.008%) and mixed with infection medium (DMEM supplemented with 1% bovine serum albumin (BSA; Wako), P/S and 4 mM L-glutamine). The resulting mixture was added to the cells and incubated for 24 or 72 h at 37°C in the presence of 5% CO2. After incubation, cell viability was determined using an MTT cell count kit (Nacalai Tesque) according to the manufacturer’s instructions, as previously described.

[1] = 3.13uM (3.125uM in summary block)

| SMILES | MTT, DMSO as 100 (DMSOを 100として), ave (0.78uM) | MTT, DMSO as 100 (DMSOを 100として), ave (1.56uM) | MTT 72h AVE (DMSO = 100) (6.25 (uM)) | MTT 72h AVE (DMSO = 100) (12.5 (uM)) | MTT 72h AVE (DMSO = 100) (25 (uM)) | MTT 72h AVE (DMSO = 100) (50 (uM)) | MTT 72h AVE (DMSO = 100) (100 (uM)) | MTT 24h, AVE (DMSO as 100) | MTT 24h, 570-650nm, DMSO as 100, single replicate (1.56uM) | MTT 24h, 570-650nm, DMSO as 100, ave (1.56uM) | MTT 24h, 570-650nm, DMSO as 100, single replicate (3.125uM) | MTT 24h, 570-650nm, DMSO as 100, ave (3.125uM) | MTT 24h, 570-650nm, DMSO as 100, single replicate (6.25uM) | MTT 24h, 570-650nm, DMSO as 100, ave (6.25uM) | MTT 24h, 570-650nm, DMSO as 100, single replicate (12.5uM) | MTT 24h, 570-650nm, DMSO as 100, ave (12.5uM) | MTT 24h, 570-650nm, DMSO as 100, single replicate (25uM) | MTT 24h, 570-650nm, DMSO as 100, ave (25uM) | MTT 24h, 570-650nm, DMSO as 100, single replicate (50uM) | MTT 24h, 570-650nm, DMSO as 100, ave (50uM) | also measured |
| --- | --- | --- | --- | --- | --- | --- | --- | --- | --- | --- | --- | --- | --- | --- | --- | --- | --- | --- | --- | --- | --- |
| C=C[C@]1(C)CC[C@H](C(=C)C)[C@@H](c2ccc(O)cc2)C1 [Cyclo. A] | 105.716 | 110.791 | 127.594 | 109.498 | 139.303 | 115.79 | 76.9772 | 98.7342 | 96.4276 and 83.3373 and 92.051 and 113.855 and 70.8632 | 91.3068 | 90.7466 and 86.7485 and 103.011 and 110.013 and 65.2713 | 91.158 | 105.57 and 88.5259 and 94.0239 and 117.378 and 78.8606 | 96.8717 | 102.53 and 101.147 and 92.3748 and 125.129 and 78.3815 | 99.9126 | 98.9543 and 93.1175 and 86.0556 and 130.26 and 81.3877 | 97.9551 | 112.693 and 118.709 and 75.6574 and 146.7 and 98.6391 | 110.48 | MTT, DMSO as 100 (DMSOを 100として), ave (3.125uM): 135.974; MTT 24h, 570-650nm, DMSO as 100, single replicate (100uM): 18.7526 and 22.4148 and 109.83 and 20.6307 and 19.4099; MTT 24h, 570-650nm, DMSO as 100, ave (100uM): 38.2076; 570-650nm (MTT absorbance, single wells) (0.78uM): 0.7522 and 1.0518 and 0.8482 and 0.7789 and 0.8023 and 0.8685; 570-650nm (MTT absorbance, single wells) [1]: 0.6647 and 0.8265 and 0.8832 and 1.0096 and 1.017 and 1.0051; 570-650nm ave (mean MTT absorbance of 5 wells) (6.25uM): 0.8727; 570-650nm (MTT absorbance, single wells) (6.25uM): 0.8664 and 0.8077 and 0.726 and 1.0037 and 0.9599 and 0.9185; MTT absorbance with DMSO as 100 (DMSOを 100として), single wells (6.25uM): 118.085 and 106.14 and 146.74 and 140.336 and 126.667; 570-650nm ave (mean MTT absorbance of 5 wells) (12.5uM): 0.8716; 570-650nm (MTT absorbance, single wells) (12.5uM): 0.7966 and 0.8514 and 0.5539 and 1.0521 and 0.9774 and 0.9778; MTT absorbance with DMSO as 100 (DMSOを 100として), single wells (12.5uM): 69.5889 and 132.18 and 122.795 and 122.845 and 100.08; 570-650nm ave (mean MTT absorbance of 5 wells) (25uM): 1.0477; 570-650nm (MTT absorbance, single wells) (25uM): 0.9324 and 1.0073 and 0.9924 and 1.0024 and 1.1748 and 1.1365; MTT absorbance with DMSO as 100 (DMSOを 100として), single wells (25uM): 131.951 and 133.28 and 156.203 and 151.11 and 123.973; 570-650nm ave (mean MTT absorbance of 5 wells) (50uM): 1.057; 570-650nm (MTT absorbance, single wells) (50uM): 1.0423 and 1.105 and 0.762 and 0.9117 and 1.3276 and 1.24; MTT absorbance with DMSO as 100 (DMSOを 100として), single wells (50uM): 83.4959 and 99.8992 and 145.471 and 135.873 and 114.21; 570-650nm ave (mean MTT absorbance of 5 wells) (100uM): 0.7247 |
| C=C[C@@](C)(/C=C/c1ccc(O)cc1)CCC=C(C)C [(+)-(S)-baku.] | 101.639 | 110.926 | 135.974 | 116.119 | 164.273 | 107.359 | 28.7987 | 106.986 | 103.696 and 92.7462 and 106.461 and 104.983 and 94.4526 | 100.468 | 107.294 and 97.5488 and 102.772 and 101.94 and 95.2685 | 100.964 | 108.582 and 98.5976 and 113.546 and 113.49 and 101.426 | 107.128 | 102.57 and 93.2171 and 103.913 and 112.439 and 104.302 | 103.288 | 108.875 and 109.835 and 96.176 and 115.944 and 106.769 | 107.52 | 119.708 and 122.77 and 91.784 and 117.912 and 113.767 | 113.188 | MTT 72h AVE (DMSO = 100) (3.13 (uM)): 132.176; MTT 24h, 570-650nm, DMSO as 100, single replicate (100uM): 79.067 and 84.0157 and 140.292 and 89.6781 and 39.1391; MTT 24h, 570-650nm, DMSO as 100, ave (100uM): 86.4384; 570-650nm (MTT absorbance, single wells) (0.78uM): 0.9216 and 1.0625 and 0.5565 and 0.8595 and 0.8044 and 0.7519; 570-650nm (MTT absorbance, single wells) (1.56uM): 0.9826 and 0.8065 and 0.7089 and 0.7456 and 0.6067 and 0.9846; 570-650nm ave (mean MTT absorbance of 5 wells) (3.125uM): 0.8903; MTT absorbance with DMSO as 100 (DMSOを 100として), single wells (3.125uM): 116.345 and 146.749 and 122.432 and 152.375 and 122.981; 570-650nm (MTT absorbance, single wells) [1]: 0.8284 and 0.7837 and 0.9885 and 0.8247 and 1.0264 and 0.8069; 570-650nm ave (mean MTT absorbance of 5 wells) (6.25uM): 0.9301; 570-650nm (MTT absorbance, single wells) (6.25uM): 0.9089 and 0.9123 and 0.7679 and 0.9049 and 1.1563 and 0.9272; MTT absorbance with DMSO as 100 (DMSOを 100として), single wells (6.25uM): 133.377 and 112.266 and 132.295 and 169.05 and 132.88; 570-650nm ave (mean MTT absorbance of 5 wells) (12.5uM): 0.9243; 570-650nm ave (mean MTT absorbance of 5 wells) (25uM): 1.2355; 570-650nm (MTT absorbance, single wells) (25uM): 1.2252 and 1.1953 and 1.2444 and 1.2282 and 1.1748 and 1.3049; MTT absorbance with DMSO as 100 (DMSOを 100として), single wells (25uM): 165.457 and 163.303 and 156.203 and 173.501 and 162.904; 570-650nm ave (mean MTT absorbance of 5 wells) (50uM): 0.9798; 570-650nm ave (mean MTT absorbance of 5 wells) (100uM): 0.2711; 570-650nm (MTT absorbance, single wells) (100uM): 0.1982 and 0.2036 and 0.3213 and 0.2978 and 0.3355 and 0.2029; MTT absorbance with DMSO as 100 (DMSOを 100として), single wells (100uM): 34.1264 and 31.6304 and 35.6346 and 21.5507 and 21.0515 |
